Results published in patent US9464111B2, “Short peptides and a method of use as an antioxidant” (L'OREAL, priority 2014, dated 2016).
Where no end group is shown, it is not given here.

Legend:
Format in all cases: biochemical
[1] = ORAC oxygen radical absorbance capacity (USTM 192), in tubo; set-up: ORAC: unit not given here; conditions: for ORAC/peroxyl: Table II; for ORAC: Tables III-IX, unit not given
Method: (§1) In the course of the study, polypeptides were prepared by conventional synthesis methods and screened in tubo for antioxidant activity for peroxyl radicals (ROO.), superoxide radicals (O2.^−) and hydroxyl radicals (.OH).
(§2) In the screening standard testing for oxygen radical absorbance capacity (ORAC), hydroxyl radical absorbance capacity (HORAC), superoxide radical absorbance capacity (SORAC) and superoxide dismutase activity (SOD) were conducted with the test polypeptides. Testing was conducted according to USTM 190 (HORAC), USTM 191 (SORAC), USTM 192 (ORAC) and USTM 193 (SOAC) (SOD).
(§3) The peptides were tested in tubo for their antioxidant properties and tested against reference/known antioxidants. The evaluation of the antioxidant properties were conducted by determination of the ORAC (USTM 192), HORAC (USTM 190) and SOD (USTM 193) test methods.

[2] = HORAC hydroxyl radical absorbance capacity (USTM 190), in tubo; set-up: HORAC: unit not given here; conditions: for HORAC/hydroxyl: Table II; for HORAC: Tables III-IX, unit not given
Method: as §1, §2, §3

[3] = SOD superoxide dismutase activity (USTM 193), in tubo; conditions: Table II; for SOD/superoxide, Active25: cells marked (Active25)
Method: as §2, §3

[4] = SORAC superoxide radical absorbance capacity (USTM 191), in tubo; conditions: Tables III-VIII; for SORAC: result in words; for SORAC (IC25): cells marked (IC25)
Method: Tables I to IX shown below are a compilation of polypeptides studied by the inventors to ascertain those elements of the molecular structure that contribute to or negate antioxidant activity. In the course of the study, polypeptides were prepared by conventional synthesis methods and screened in tubo for antioxidant activity for peroxyl radicals (ROO.), superoxide radicals (O2.^−) and hydroxyl radicals (.OH).
In the screening standard testing for oxygen radical absorbance capacity (ORAC), hydroxyl radical absorbance capacity (HORAC), superoxide radical absorbance capacity (SORAC) and superoxide dismutase activity (SOD) were conducted with the test polypeptides. Testing was conducted according to USTM 190 (HORAC), USTM 191 (SORAC), USTM 192 (ORAC) and USTM 193 (SOAC) (SOD). Upon review of the results as indicated in the Tables, the inventors have discovered certain elements of the polypeptide structure as recited in claim 1 that are key contributors to determination of antioxidant activity.

Row | Compound | ORAC [1] | HORAC [2] | SORAC [4] | also measured
1 | NCCC(=O)N[C@@H](Cc1c[nH]cn1)C(=O)O [Carnosine, β-alanyl-histidine, reference compound] |  |  |  | ORAC/peroxyl [1]: 354 μmol GAE/g; HORAC/hydroxyl [2]: 2099 μmol GAE/g; SOD/superoxide, Active50 [3]: 0 U/mg
2 | O=C1O[C@H]([C@@H](O)CO)C(O)=C1O [Vitamin C, reference compound] |  |  |  | ORAC/peroxyl [1]: 4456 μmol GAE/g; HORAC/hydroxyl [2]: 0 μmol GAE/g; SOD/superoxide, Active50 [3]: 752 U/mg
3 | Ac-DESLESTRRM-NH2 [AC-SNP4] | No capacity | No capacity |  | 
4 | Ac-EELMSDIKK-NH2 [AC-SYN2] | No capacity | No capacity |  | 
5 | Ac-EEMLERQRR-NH2 [AC-SNP3] | No capacity | No capacity |  | 
6 | Ac-EEMQRRKKK-NH2 [AC-SNP5] | No capacity | No capacity |  | 
7 | Ac-EEVKRK-NH2 [AC-SYN1] | No capacity | No capacity |  | 
8 | Ac-KKKEEMQRR-NH2 [AC-SNP7] | No capacity | No capacity |  | 
9 | Ac-RRMLQLVEE-NH2 [AC-SNP1] | No capacity | No capacity |  | 
10 | Ac-Valérate-EEMQRRKKK-NH2 ({Ac-Valérate}-EEMQRRKKK-NH2; not fully specified; printed as Ac-Valérate-EEMQRRKKK-NH2) [AC-SNP6] | No capacity | No capacity |  | 
11 | Ac-wRyR-NH2 [RED27] | 5342 |  | No capacity | 
12 | CWRYR-NH2 [RED11] | 2007 | 625 | No capacity | 
13 | HRHM [CP2.5] | 952 | 10192 |  | 
14 | HWPY [S1] | 5955 |  |  | SORAC (IC25) [4]: 13(IC25)
15 | HWRF [IMM1] | 2422 |  |  | SORAC (IC25) [4]: 5(IC25)
16 | HYHY [AO1, short chain polypeptide of the invention] | 4748 | 33489 |  | ORAC/peroxyl [1]: 4748 μmol GAE/g; HORAC/hydroxyl [2]: 33489 μmol GAE/g; SOD/superoxide, Active25 [3]: 6 (Active25) U/mg; SORAC (IC25) [4]: 6(IC25)
17 | KRKYWW-NH2 [RED2] | 1837 | 1063 | No capacity | 
18 | RRH [CP2.6] |  | 41073 |  | 
19 | RRHM [CP2] | 1204 | 321448 |  | ORAC/peroxyl [1]: 1204 μmol GAE/g; HORAC/hydroxyl [2]: 321448 μmol GAE/g; SORAC (IC25) [4]: 6(IC25)
20 | RYHM [AO2.1] | 5390 | 131574 |  | ORAC/peroxyl [1]: 5390 μmol GAE/g; HORAC/hydroxyl [2]: 132591 μmol GAE/g

Row | Compound | ORAC [1] | HORAC [2] | SORAC [4] | also measured
21 | RYHW [AO2, short chain polypeptide of the invention] | 9328 | 41882 |  | ORAC/peroxyl [1]: 9328 μmol GAE/g; HORAC/hydroxyl [2]: 41882 μmol GAE/g; SOD/superoxide, Active25 [3]: 4 (Active25) U/mg; SORAC (IC25) [4]: 4(IC25)
22 | RwRyR-NH2 [RED26] | 4461 |  | No capacity | 
23 | RyR-NH2 [RED32] | 3385 |  | No capacity | 
24 | WKYK-NH2 [RED25] | 4168 | 2476 | No capacity | 
25 | WRYR (not fully specified (C-terminus)) [RED23] | 4091 | 2089 | No capacity | 
26 | WRYR-NH2 [RED6] | 4488 | 1548 | No capacity | 
27 | WRYr-NH2 [RED19] | 4350 | 1457 | No capacity | 
28 | WRyR-NH2 [RED21] | 4816 | 2472 |  | SORAC (IC25) [4]: 7(IC25)
29 | WrYR-NH2 [RED20] | 4448 | 1666 | No capacity | 
30 | WrYr-NH2 [RED18] | 4758 | 2982 | No capacity | 
31 | YHFR [IMM2] |  | 3036 |  | SORAC (IC25) [4]: 5(IC25)
32 | YWPW [S2] | 5917 |  | No capacity | 
33 | YkYkYk [RED34] | 355 | 1053 |  | 
34 | fkwR-NH2 [RED9] | 2202 | 752 | No capacity | 
35 | kfRw-NH2 [RED7] | 2120 | 1124 | No capacity | 
36 | wRYR-NH2 [RED24] | 4077 | 2225 | No capacity | 
37 | wRwR-NH2 [RED31] | 4652 |  | No capacity | 
38 | wRyR-NH2 [RED22] | 5383 | 1686 | No capacity | 
39 | wRyRw-NH2 [RED29] | 5512 |  | No capacity | 
40 | wRyRy-NH2 [RED28] | 5216 |  |  | SORAC (IC25) [4]: 3(IC25)
